How the values were obtained:
human D2L = target: T1, human D2L (Homo sapiens, UniProt P14416); assay: Receptor binding assay, inhibition of [3H]-ligand binding to human D2L; conditions: [3H]N-methyl spiperone 1 nM, CHO cell membranes, 37°C, 60 min; read-out: D2(Ki µM)
T1 construct: expressed in transfected cells; membranes prepared
Method: (§1) Cells stably expressing the human homologs of the receptors (dopamine D2L, serotonin 5HT2A and 5HT2C, α1A adrenergic; cloned and expressed at Hoechst Marion Roussel; Grandy et al., 1989: Monsma et al., 1993; Schwinn et al., 1995) were grown: cell membranes were prepared, and kept frozen until used (Kongsamut et al., 1996). […] All binding parameters were optimized at Hoechst Marion Roussel; ligand KdS were determined using both saturation analysis (Scatchard) as well as kinetic analysis (association and dissociation rates). Each batch of membrane was validated by checking the ligand Kd, and rank order of potency of selected standard compounds. Assays for the serotonin 5HT2A and dopamine D2L receptors were conducted at 37°C in a Tris buffer containing salts (50 mM Tris Buffer, pH 7.7; 120 mM NaCl; 5 mM KCI; 2 mM CaCl2; 1 mM MgCl2), while the serotonin 5-HT2C and α1A adrenergic receptor assays used a different buffer without salts (50 mM Tris, 4 mM CaCl2 and 1% ascorbate, pH 7.4). […]
(§2) Membranes were rapidly thawed and diluted to an appropriate concentration (between 20 - 150 µg protein/assay point depending on receptor expression level) in Tris buffer and homogenized. […] Microscint scintillation cocktail (40 µl) were added and the filter plates were counted in a Packard Top Count scintillation counter.

human α1A = target: T2, human α1A (Homo sapiens, UniProt P35348); assay: Receptor binding assay, inhibition of [3H]-ligand binding to human α1A; conditions: [3H]prazosin 1 nM, CHO cell membranes, 37°C, 40 min
T2 construct: expressed in transfected cells; membranes prepared
T2 sequence (P35348 1-466): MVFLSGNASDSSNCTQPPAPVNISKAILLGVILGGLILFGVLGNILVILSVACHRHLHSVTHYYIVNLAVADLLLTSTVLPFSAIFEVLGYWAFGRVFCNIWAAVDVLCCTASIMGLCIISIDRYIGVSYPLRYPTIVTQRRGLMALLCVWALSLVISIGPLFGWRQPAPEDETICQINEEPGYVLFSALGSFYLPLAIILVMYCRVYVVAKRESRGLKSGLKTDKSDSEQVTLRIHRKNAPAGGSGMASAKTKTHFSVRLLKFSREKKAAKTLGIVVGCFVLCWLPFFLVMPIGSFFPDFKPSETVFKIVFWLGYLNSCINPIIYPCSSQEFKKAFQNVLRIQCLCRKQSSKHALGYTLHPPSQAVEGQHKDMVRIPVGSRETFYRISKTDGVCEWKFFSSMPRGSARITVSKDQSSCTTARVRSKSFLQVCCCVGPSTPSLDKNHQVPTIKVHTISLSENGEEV
Method: as §1, §2

[1] = Bovine Brain Endothelial Cells (BBMEC) transport study, in vitro BBB permeability; assay type: in vitro ADME; conditions: BBMEC monolayer, mean ± standard deviation
Method: The compounds of this invention are capable of crossing the blood-brain barrier (BBB) as shown by their ability to penetrate across a membrane of a monolayer of bovine brain microvessel endothelial cells, an in vitro model for BBB permeability.
The procedure was performed according to: Kenneth L. Audus et al., Brain Microvessel Endothelial Cell Culture System (Chapter 13) pp 239-258. In Models for Assessing Drug Absorption and Metabolism, Ronald T. Borchardt et al. eds., Plenum Press, New York 1996.

human 5-HT2A = target: T3, human 5-HT2A (Homo sapiens, UniProt P28223); assay: Receptor binding assay, inhibition of [3H]-ligand binding to human 5-HT2A
T3 construct: expressed in transfected cells; membranes prepared
Method: Cells stably expressing the human homologs of the receptors (dopamine D2L, serotonin 5HT2A and 5HT2C, α1A adrenergic; cloned and expressed at Hoechst Marion Roussel; Grandy et al., 1989: Monsma et al., 1993; Schwinn et al., 1995) were grown: cell membranes were prepared, and kept frozen until used (Kongsamut et al., 1996). The relevance of these binding sites has been extensively discussed in the literature (see for example: Carlsson & Carlsson. 1990; Creese et al., 1976; Gorman & Vargas, 1995; Meltzer et al., 1989). All binding parameters were optimized at Hoechst Marion Roussel; ligand KdS were determined using both saturation analysis (Scatchard) as well as kinetic analysis (association and dissociation rates). Each batch of membrane was validated by checking the ligand Kd, and rank order of potency of selected standard compounds. […]
as §2, with “counter. Data were analyzed to determine Ki's for compounds of interest (Prusoff & Cheng, […]).Table: Receptor Binding Parameters. […]” for “counter.”

human 5-HT2C = target: T4, human 5-HT2C (Homo sapiens, UniProt P28335); assay: Receptor binding assay, inhibition of [3H]-ligand binding to human 5-HT2C; conditions: [3H]mesulergine 2 nM, CHO cell membranes, 37°C, 40 min
T4 construct: expressed in transfected cells; membranes prepared
T4 sequence (P28335 33-458): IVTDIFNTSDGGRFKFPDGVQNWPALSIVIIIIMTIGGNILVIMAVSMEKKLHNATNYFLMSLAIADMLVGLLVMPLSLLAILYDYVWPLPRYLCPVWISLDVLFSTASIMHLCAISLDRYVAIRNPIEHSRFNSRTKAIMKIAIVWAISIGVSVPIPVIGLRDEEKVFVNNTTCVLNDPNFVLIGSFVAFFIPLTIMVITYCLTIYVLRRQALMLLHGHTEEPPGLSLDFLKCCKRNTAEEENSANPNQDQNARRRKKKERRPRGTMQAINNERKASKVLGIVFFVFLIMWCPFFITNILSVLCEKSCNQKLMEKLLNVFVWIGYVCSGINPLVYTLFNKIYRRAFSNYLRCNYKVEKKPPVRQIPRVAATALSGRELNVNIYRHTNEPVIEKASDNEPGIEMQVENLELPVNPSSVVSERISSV
Method: as §1, §2

T3 sequence (P28223 whole entry): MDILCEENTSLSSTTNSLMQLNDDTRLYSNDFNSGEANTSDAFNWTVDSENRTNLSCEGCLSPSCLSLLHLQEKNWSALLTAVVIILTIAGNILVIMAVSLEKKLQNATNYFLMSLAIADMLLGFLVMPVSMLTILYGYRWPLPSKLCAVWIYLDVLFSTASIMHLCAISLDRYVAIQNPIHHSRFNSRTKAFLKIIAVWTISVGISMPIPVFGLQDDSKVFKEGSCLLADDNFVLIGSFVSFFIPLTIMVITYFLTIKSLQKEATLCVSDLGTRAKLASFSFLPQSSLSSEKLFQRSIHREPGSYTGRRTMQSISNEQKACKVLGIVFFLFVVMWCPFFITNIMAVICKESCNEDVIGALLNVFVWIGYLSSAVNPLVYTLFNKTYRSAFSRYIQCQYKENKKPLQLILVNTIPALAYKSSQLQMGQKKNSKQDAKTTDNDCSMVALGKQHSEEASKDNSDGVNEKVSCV
T1 sequence (P14416 whole entry): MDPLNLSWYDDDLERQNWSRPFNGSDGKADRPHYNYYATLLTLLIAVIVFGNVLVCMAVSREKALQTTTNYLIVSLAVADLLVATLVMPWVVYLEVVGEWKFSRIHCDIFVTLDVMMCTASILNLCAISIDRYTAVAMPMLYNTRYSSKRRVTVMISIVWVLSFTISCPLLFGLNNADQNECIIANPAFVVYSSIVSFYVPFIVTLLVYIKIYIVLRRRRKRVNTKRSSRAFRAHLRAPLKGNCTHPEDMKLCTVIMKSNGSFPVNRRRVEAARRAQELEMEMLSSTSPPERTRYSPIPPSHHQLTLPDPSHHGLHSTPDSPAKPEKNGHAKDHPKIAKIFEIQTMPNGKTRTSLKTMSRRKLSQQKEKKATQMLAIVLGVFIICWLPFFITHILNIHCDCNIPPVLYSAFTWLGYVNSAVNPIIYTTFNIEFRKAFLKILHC

Row | Structure (SMILES) | Ki (human D2L) [µM] | Ki (human α1A) [µM] | Papp at 5.4 µM [1] [×10⁻⁶ cm/s] | Papp at 16 µM [1] [×10⁻⁶ cm/s] | Ki (human 5-HT2A; [3H]N-methyl spiperone 1.5 nM, BHK cell membranes, 37°C, 40 min) [µM] | Ki (human 5-HT2C) [µM] | Kd (human 5-HT2A; radioligand Kd at human 5-HT2A, BHK, saturation (Scatchard) and kinetic analysis) [nM]
1 | COc1c(OS(=O)(=O)O)cccc1C(O)C1CCN(CCc2ccc(F)cc2)CC1 (single isomer, unassigned) [Example 1H, Sulfuric acid mono-(+)-(3-(-{1-[2-(4-fluoro-phenyl)-ethyl]-piperidin-d-yl}-hydroxy-methyl)-2-methoxy-phenyl] ester] | > 1 | > 1 | 41.4 ± 16.4 | 52.5 ± 9.5 | 0.16 | > 1 | –
2 | OC[C@@H](O)[C@@H](O)[C@H](O)[C@H](O)CO [Mannitol, reference compound] | – | – | 27.6 ± 2.3 | 27.6 ± 2.3 | – | – | –
3 | CN1CN(c2ccccc2)C2(CCN(CCCC(=O)c3ccc(F)cc3)CC2)C1=O [[^3H]N-methyl spiperone, reference compound] | – | – | – | – | – | – | 0.92

— EP1202967B1, “SULFURIC ACID MONO-[3-({1-[2-(4-FLUORO-PHENYL)-ETHYL]-PIPERIDIN-4-YL}-HYDROXY-METHYL)-2-METHOXY-PHENYL]ESTER” (AVENTIS PHARMACEUTICALS INC., priority 1999, dated 2001)
